Source: US8394959B2, “Maleate salts of (E)-N-{4-[3-chloro-4-(2-pyridinylmethoxy)anilino]-3-cyano-7-ethoxy-6-quinolinyl)-4-(dimethylamino)-2-buteramide and crystalline forms thereof” (Wyeth LLC, priority 2007, dated 2013)

Legend:
Type in all cases: physicochemical
[1] = Stability of crystalline forms of the reslurry at room temperature for 14 days; settings: reslurry in Ethyl acetate
From the text: In one embodiment the re-slurry is allowed to stand for about 14 days.

[2] = Dynamic vapor sorption (DVS) hygroscopicity; settings: DVS isotherm, FIG. 2; especially at 60% RH and above
From the text: The relative stability and hygroscopicity of the two crystalline forms of the maleate salt was studied in detail by dynamic vapor sorption (DVS).

[3] = Solid state stability in closed and open containers at 40° C. and 75% RH
From the text: Both Form I and Form II remained stable for 6 months under these conditions. […] Samples in the closed containers remained dry. HPLC purity analysis indicated no significant increase in degradation products in both open and closed conditions for up to 6 months.

[4] = Closed Vial at 40° C./75% RH, 1 week in storage
[5] = Closed Vial at 40° C./75% RH, 2 weeks in storage
[6] = Closed Vial at 40° C./75% RH, 4 weeks in storage
[7] = Closed Vial at 40° C./75% RH, 12 weeks in storage
[8] = Closed Vial at 40° C./75% RH, 24 weeks in storage
[9] = Closed Vial at 40° C./75% RH, Initial
[10] = Open Vial at 40° C./75% RH, 1 week in storage
[11] = Open Vial at 40° C./75% RH, 2 weeks in storage
[12] = Open Vial at 40° C./75% RH, 4 weeks in storage
[13] = Open Vial at 40° C./75% RH, 12 weeks in storage
[14] = Open Vial at 40° C./75% RH, 24 weeks in storage
[15] = Open Vial at 40° C./75% RH, Initial

## CCOc1cc2ncc(C#N)c(Nc3ccc(OCc4ccccn4)c(Cl)c3)c2cc1NC(=O)/C=C/CN(C)C.O=C(O)/C=C\C(=O)O [Form I]
[1]
  Final Form, wet cake: I + some II
[2]
  relative humidity at which moisture is gained: above 40 % relative humidity (RH)
[3]; [4]
  Moisture: 0.39%
  Potency (dry basis): 100.46%
  Potency as is: 100.07%
  Total impurities: 0.57%
[3]; [5]
  Moisture: 0.34%
  Potency (dry basis): 100.38%
  Potency as is: 100.03%
  Total impurities: 0.64%
[3]; [6]
  Moisture: 0.22%
  Potency (dry basis): 97.09%
  Potency as is: 96.87%
  Total impurities: 0.61%
[3]; [7]
  Moisture: 0.46%
  Potency (dry basis): 100.67%
  Potency as is: 100.21%
  Total impurities: 0.66%
[3]; [8]
  Moisture: 0.16%
  Potency (dry basis): 99.12%
  Potency as is: 98.96%
  Total impurities: 0.68%
[3]; [9]
  Moisture: 0.35%
  Potency (dry basis): 100.85%
  Potency as is: 100.50%
  Total impurities: 0.57%
[3]; [10]
  Moisture: 2.82%
  Potency (dry basis): 102.01%
  Potency as is: 99.13%
  Total impurities: 0.55%
[3]; [11]
  Moisture: 2.86%
  Potency (dry basis): 100.37%
  Potency as is: 97.50%
  Total impurities: 0.65%
[3]; [12]
  Moisture: 2.74%
  Potency (dry basis): 97.96%
  Potency as is: 95.27%
  Total impurities: 0.58%
[3]; [13]
  Moisture: 2.98%
  Potency (dry basis): 101.13%
  Potency as is: 98.12%
  Total impurities: 0.65%
[3]; [14]
  Moisture: 2.79%
  Potency (dry basis): 100.01%
  Potency as is: 97.22%
  Total impurities: 0.69%
[3]; [15]
  Moisture: 0.35%
  Potency (dry basis): 100.85%
  Potency as is: 100.50%
  Total impurities: 0.57%
[3]; closed and open containers at 40° C. and 75% RH
  time remained stable: 6 months
[3]; open containers at 40° C. and 75% RH
  water uptake in open containers: rapidly absorbed one mole of water to form the monohydrate form
